# Experimental data: publication PMC7265341, “Quantifying CDK inhibitor selectivity in live cells” (Nature Communications, 2020)
# Where two headings read alike, the source gives them in different places.
# How the values were obtained:
# CDK12/Cyclin K = CDK12/Cyclin K (Homo sapiens, UniProt Q9NYV4); assay: NanoBRET live-cell target engagement, CDK12-NanoLuc/Cyclin K in HEK-293; format: binding; conditions: CDK12/K
# CDK8/Cyclin C = CDK8/Cyclin C (Homo sapiens, UniProt P49336); assay: NanoBRET live-cell target engagement, NanoLuc-CDK8/Cyclin C in HEK-293; format: binding; conditions: CDK8/C
# CDK11B/Cyclin L2 = CDK11B/Cyclin L2 (Homo sapiens, UniProt P21127); assay: NanoBRET live-cell target engagement, CDK11B-NanoLuc/Cyclin L2 in HEK-293; format: binding; conditions: CDK11b/L2
# CDK14/Cyclin Y = CDK14/Cyclin Y (Homo sapiens, UniProt O94921); assay: NanoBRET live-cell target engagement, CDK14-NanoLuc/Cyclin Y in HEK-293; format: binding; conditions: CDK14/Y; for IC50: read-out: IC50
# Chain of CDK14/Cyclin Y (O94921 whole entry): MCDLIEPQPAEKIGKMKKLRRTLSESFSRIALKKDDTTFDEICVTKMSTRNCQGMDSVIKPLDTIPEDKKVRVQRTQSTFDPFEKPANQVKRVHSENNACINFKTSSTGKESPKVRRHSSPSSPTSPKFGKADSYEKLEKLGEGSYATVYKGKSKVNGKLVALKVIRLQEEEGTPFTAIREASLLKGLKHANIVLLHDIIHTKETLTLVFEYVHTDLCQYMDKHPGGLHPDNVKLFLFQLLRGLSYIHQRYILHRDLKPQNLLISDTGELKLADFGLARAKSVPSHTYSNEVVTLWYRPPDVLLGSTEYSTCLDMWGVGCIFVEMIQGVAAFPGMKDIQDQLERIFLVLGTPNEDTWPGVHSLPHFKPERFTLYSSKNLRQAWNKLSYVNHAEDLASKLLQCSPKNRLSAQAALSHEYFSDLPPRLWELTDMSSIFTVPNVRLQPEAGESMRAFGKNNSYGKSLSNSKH
# Chain of CDK14/Cyclin Y (Q8ND76 whole entry partner): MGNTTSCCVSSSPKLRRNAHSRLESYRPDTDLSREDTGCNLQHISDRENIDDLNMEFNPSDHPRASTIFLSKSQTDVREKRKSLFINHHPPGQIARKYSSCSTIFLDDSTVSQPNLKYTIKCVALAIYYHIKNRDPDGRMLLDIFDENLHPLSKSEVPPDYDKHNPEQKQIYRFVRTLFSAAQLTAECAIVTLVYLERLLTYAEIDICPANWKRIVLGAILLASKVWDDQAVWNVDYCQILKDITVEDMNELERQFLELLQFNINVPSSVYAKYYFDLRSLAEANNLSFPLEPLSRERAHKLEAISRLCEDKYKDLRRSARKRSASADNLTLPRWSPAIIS
# CDK5/CDK5R1 = CDK5/CDK5R1 (Homo sapiens, UniProt Q00535); assay: NanoBRET live-cell target engagement, CDK5-NanoLuc/CDK5R1 in HEK-293; format: binding; conditions: CDK5/CDK5R1
# CDK18/Cyclin Y = CDK18/Cyclin Y (Homo sapiens, UniProt Q07002); assay: NanoBRET live-cell target engagement, CDK18-NanoLuc/Cyclin Y in HEK-293; format: binding; conditions: CDK18/Y
# CDK6/Cyclin D1 = CDK6/Cyclin D1 (Homo sapiens, UniProt Q00534); assay: NanoBRET live-cell target engagement, NanoLuc-CDK6/Cyclin D1 in HEK-293; format: binding; conditions: CDK6/D1; for IC50: read-out: IC50
# Chain of CDK6/Cyclin D1 (Q00534 whole entry): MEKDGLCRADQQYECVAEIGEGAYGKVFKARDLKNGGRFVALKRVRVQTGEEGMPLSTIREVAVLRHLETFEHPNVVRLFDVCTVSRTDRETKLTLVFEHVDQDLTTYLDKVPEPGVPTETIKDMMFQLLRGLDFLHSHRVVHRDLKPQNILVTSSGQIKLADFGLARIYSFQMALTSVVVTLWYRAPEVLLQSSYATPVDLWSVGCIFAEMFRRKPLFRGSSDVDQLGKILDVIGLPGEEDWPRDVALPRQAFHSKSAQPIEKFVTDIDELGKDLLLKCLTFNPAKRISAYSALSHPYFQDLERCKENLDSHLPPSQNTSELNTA
# Chain of CDK6/Cyclin D1 (P24385 whole entry partner): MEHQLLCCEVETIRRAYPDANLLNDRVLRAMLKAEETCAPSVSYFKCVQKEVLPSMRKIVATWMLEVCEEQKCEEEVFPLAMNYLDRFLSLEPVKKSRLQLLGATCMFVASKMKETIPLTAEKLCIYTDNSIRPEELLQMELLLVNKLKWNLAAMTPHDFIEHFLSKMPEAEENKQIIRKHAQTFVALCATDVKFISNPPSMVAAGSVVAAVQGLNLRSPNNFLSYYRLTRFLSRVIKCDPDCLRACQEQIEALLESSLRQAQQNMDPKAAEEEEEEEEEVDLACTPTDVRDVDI
# CDK10/Cyclin L2 = CDK10/Cyclin L2 (Homo sapiens, UniProt Q15131); assay: NanoBRET live-cell target engagement, CDK10-NanoLuc/Cyclin L2 in HEK-293; conditions: CDK10/L2
# CDK16/Cyclin Y = CDK16/Cyclin Y (Homo sapiens, UniProt Q00536); assay: NanoBRET live-cell target engagement, CDK16-NanoLuc/Cyclin Y in HEK-293; format: binding; conditions: CDK16/Y; for IC50: read-out: IC50
# CDK3/Cyclin E1 = CDK3/Cyclin E1 (Homo sapiens, UniProt Q00526); assay: NanoBRET live-cell target engagement, CDK3-NanoLuc/Cyclin E1 in HEK-293; format: binding; conditions: CDK3/E1
# Chain of CDK3/Cyclin E1 (Q00526 whole entry): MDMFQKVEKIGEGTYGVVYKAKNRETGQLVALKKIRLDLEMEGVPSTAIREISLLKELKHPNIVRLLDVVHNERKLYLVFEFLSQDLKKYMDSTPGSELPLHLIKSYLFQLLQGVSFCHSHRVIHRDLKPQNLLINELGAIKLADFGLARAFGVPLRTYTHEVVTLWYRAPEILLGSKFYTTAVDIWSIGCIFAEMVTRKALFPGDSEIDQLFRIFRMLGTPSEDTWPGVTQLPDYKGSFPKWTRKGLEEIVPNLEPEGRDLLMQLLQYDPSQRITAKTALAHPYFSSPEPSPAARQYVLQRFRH
# Chain of CDK3/Cyclin E1 (P24864 whole entry partner): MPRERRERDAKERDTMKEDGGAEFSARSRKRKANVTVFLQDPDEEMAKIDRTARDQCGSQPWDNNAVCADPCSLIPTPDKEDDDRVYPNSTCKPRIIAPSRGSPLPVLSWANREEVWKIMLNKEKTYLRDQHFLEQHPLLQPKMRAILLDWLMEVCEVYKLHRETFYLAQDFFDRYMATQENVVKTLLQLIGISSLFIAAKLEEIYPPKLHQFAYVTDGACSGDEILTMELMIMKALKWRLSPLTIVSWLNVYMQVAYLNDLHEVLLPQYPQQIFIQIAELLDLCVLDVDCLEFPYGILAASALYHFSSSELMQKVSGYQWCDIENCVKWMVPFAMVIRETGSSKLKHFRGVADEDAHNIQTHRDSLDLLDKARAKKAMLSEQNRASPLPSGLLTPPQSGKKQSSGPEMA
# CDK15/Cyclin Y = CDK15/Cyclin Y (Homo sapiens, UniProt Q96Q40); assay: NanoBRET live-cell target engagement, NanoLuc-CDK15/Cyclin Y in HEK-293; format: binding; conditions: CDK15/Y; for IC50: read-out: IC50
# CDK19/Cyclin C = CDK19/Cyclin C (Homo sapiens, UniProt Q9BWU1); assay: NanoBRET live-cell target engagement, NanoLuc-CDK19/Cyclin C in HEK-293
# Chain of CDK19/Cyclin C (Q9BWU1 whole entry): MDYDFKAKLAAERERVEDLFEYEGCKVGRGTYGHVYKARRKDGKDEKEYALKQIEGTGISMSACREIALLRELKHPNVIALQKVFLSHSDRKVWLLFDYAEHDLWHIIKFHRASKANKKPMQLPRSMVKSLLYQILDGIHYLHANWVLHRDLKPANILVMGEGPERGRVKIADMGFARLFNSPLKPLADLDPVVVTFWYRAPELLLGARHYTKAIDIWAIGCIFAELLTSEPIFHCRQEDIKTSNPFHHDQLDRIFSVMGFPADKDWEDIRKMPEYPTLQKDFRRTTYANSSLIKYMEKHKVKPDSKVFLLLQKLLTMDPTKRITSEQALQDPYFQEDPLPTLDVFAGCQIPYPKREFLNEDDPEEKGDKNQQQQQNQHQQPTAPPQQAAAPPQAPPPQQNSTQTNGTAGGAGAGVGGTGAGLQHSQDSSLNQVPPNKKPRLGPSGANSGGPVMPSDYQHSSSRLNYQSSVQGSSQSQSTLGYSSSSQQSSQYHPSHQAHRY
# Chain of CDK19/Cyclin C (P24863 whole entry partner): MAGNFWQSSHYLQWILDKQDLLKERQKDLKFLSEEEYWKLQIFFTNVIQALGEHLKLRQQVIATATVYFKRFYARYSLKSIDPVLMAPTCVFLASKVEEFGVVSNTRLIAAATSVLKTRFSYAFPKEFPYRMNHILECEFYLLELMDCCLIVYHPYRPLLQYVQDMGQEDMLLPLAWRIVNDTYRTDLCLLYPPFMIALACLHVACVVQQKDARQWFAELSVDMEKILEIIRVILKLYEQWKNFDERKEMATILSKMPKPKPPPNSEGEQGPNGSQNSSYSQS
# CDK20/Cyclin H = CDK20/Cyclin H (Homo sapiens, UniProt Q8IZL9); assay: NanoBRET live-cell target engagement, NanoLuc-CDK20/Cyclin H in HEK-293; format: binding; conditions: CDK20/H
# CDK11A/Cyclin L2 = target: T1, CDK11A/Cyclin L2 (Homo sapiens, UniProt Q9UQ88); assay: NanoBRET live-cell target engagement, CDK11A-NanoLuc/Cyclin L2 in HEK-293; format: binding; conditions: CDK11a/L2
# T1 sequence (Q9UQ88 1-783): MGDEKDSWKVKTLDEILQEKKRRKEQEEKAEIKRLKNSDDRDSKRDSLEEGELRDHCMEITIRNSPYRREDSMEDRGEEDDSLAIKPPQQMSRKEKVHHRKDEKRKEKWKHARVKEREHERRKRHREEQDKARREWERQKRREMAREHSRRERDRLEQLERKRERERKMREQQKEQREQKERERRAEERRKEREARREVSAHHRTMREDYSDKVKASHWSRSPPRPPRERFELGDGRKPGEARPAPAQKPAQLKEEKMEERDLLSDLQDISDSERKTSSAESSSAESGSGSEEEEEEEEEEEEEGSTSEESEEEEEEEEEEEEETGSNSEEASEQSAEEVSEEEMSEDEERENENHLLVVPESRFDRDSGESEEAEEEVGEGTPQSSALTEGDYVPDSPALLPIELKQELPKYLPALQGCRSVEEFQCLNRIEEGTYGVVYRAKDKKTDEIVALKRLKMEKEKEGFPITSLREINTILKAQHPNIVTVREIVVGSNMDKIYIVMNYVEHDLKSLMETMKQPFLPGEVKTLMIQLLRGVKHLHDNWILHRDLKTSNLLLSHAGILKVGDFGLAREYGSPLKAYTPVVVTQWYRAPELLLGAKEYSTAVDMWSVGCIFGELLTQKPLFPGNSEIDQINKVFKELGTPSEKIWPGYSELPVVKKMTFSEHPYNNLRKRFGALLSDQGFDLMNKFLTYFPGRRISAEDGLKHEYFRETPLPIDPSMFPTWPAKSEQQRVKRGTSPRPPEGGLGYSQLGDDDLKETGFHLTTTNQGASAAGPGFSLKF
# CDK17/Cyclin Y = CDK17/Cyclin Y (Homo sapiens, UniProt Q00537); assay: NanoBRET live-cell target engagement, CDK17-NanoLuc/Cyclin Y in HEK-293; format: binding; conditions: CDK17/Y; for IC50: read-out: IC50
# CDK13/Cyclin K = CDK13/Cyclin K (Homo sapiens, UniProt Q14004); assay: NanoBRET live-cell target engagement, CDK13-NanoLuc/Cyclin K in HEK-293; format: binding; conditions: CDK13/K
# CDK4/Cyclin D1 = CDK4/Cyclin D1 (Homo sapiens, UniProt P11802); assay: NanoBRET live-cell target engagement, NanoLuc-CDK4/Cyclin D1 in HEK-293; format: binding; conditions: CDK4/D1; for IC50: read-out: IC50
# Chain of CDK12/Cyclin K (Q9NYV4 1-1481 isoform Q9NYV4-2): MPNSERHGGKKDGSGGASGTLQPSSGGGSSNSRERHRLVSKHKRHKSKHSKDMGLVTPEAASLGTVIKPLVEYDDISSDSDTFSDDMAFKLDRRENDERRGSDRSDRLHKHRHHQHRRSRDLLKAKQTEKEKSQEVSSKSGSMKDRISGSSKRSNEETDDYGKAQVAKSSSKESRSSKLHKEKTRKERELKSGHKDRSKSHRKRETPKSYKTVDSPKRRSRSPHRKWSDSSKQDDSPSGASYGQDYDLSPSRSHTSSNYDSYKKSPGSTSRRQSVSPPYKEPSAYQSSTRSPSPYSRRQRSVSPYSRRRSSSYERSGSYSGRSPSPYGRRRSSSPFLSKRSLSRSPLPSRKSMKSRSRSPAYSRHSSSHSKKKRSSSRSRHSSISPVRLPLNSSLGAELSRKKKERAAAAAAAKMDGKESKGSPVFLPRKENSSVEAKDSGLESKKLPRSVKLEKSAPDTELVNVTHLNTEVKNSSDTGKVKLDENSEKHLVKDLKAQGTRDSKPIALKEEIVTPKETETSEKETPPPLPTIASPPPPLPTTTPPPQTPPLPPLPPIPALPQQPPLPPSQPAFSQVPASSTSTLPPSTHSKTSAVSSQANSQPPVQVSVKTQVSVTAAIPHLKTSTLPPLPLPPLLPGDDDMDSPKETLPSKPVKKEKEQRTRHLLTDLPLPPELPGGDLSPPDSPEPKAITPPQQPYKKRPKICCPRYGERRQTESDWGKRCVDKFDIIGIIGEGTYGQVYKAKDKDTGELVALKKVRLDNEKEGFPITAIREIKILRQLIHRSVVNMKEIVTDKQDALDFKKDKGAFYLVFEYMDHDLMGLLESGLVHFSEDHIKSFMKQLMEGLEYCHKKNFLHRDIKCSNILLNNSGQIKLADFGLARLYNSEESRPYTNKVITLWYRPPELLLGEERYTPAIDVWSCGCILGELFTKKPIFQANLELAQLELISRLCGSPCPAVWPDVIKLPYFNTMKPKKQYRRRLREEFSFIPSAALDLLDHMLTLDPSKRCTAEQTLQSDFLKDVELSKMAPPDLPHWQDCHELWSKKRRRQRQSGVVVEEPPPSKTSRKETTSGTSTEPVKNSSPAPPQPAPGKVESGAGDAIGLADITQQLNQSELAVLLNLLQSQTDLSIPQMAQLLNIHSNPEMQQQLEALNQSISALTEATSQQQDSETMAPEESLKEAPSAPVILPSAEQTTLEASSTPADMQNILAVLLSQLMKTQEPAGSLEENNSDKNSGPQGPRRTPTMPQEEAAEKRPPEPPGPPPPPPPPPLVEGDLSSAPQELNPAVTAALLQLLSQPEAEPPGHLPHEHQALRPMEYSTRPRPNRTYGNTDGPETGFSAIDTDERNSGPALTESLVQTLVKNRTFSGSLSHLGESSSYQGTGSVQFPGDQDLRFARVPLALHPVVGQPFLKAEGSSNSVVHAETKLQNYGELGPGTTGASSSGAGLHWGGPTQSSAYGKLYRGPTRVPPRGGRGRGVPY
# Chain of CDK12/Cyclin K (O75909 whole entry partner): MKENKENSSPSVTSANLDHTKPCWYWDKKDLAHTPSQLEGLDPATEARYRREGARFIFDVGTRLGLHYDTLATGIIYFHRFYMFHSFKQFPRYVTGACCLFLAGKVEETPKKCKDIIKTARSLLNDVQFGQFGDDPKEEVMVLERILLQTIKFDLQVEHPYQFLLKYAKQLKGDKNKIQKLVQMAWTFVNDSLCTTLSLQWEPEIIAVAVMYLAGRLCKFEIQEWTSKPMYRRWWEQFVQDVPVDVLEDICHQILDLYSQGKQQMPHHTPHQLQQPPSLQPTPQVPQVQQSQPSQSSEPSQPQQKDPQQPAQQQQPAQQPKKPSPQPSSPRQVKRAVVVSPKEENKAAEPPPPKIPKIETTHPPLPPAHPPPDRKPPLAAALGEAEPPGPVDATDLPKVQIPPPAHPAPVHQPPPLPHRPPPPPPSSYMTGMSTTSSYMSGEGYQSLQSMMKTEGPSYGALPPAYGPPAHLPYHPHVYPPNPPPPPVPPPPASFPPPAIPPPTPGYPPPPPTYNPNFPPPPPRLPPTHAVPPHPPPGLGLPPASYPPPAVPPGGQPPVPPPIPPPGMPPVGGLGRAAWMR
smiles,measurement,setting,value
CNc1nc(C)c(-c2nc(Nc3cccc(S(N)(=O)=O)c3)ncc2F)s1 [CDKI-73],Inhibition at 10µM (%),CDK12/Cyclin K; average,42.5%
same,Inhibition at 10µM (%),CDK12/Cyclin K; experiment 1,31.7%
same,Inhibition at 10µM (%),CDK12/Cyclin K; experiment 2,53.2%
same,Inhibition at 10µM (%),CDK8/Cyclin C; average,89.5%
same,Inhibition at 10µM (%),CDK8/Cyclin C; experiment 1,81.5%
same,Inhibition at 10µM (%),CDK8/Cyclin C; experiment 2,97.4%
same,Inhibition at 10µM (%),CDK11B/Cyclin L2; average,50.2%
same,Inhibition at 10µM (%),CDK11B/Cyclin L2; experiment 1,41.6%
same,Inhibition at 10µM (%),CDK11B/Cyclin L2; experiment 2,58.7%
same,Inhibition at 10µM (%),CDK14/Cyclin Y; average,92.7%
same,IC50,CDK14/Cyclin Y; average (± SEM where n=3),48 nM
same,Inhibition at 10µM (%),CDK14/Cyclin Y; experiment 1,93.7%
same,IC50,CDK14/Cyclin Y; experiment 1,59 nM
same,Inhibition at 10µM (%),CDK14/Cyclin Y; experiment 2,91.8%
same,IC50,CDK14/Cyclin Y; experiment 2,37 nM
same,Inhibition at 10µM (%),CDK5/CDK5R1; average,90.6%
same,Inhibition at 10µM (%),CDK5/CDK5R1; experiment 1,88.4%
same,Inhibition at 10µM (%),CDK5/CDK5R1; experiment 2,92.7%
same,Inhibition at 10µM (%),CDK18/Cyclin Y; experiment 1,95.5%
same,Inhibition at 10µM (%),CDK18/Cyclin Y; experiment 2,102.2%
same,Inhibition at 10µM (%),CDK6/Cyclin D1; average,99.1%
same,IC50,CDK6/Cyclin D1; average (± SEM where n=3),14 nM
same,Inhibition at 10µM (%),CDK6/Cyclin D1; experiment 1,98.8%
same,IC50,CDK6/Cyclin D1; experiment 1,22 nM
same,Inhibition at 10µM (%),CDK6/Cyclin D1; experiment 2,99.3%
same,IC50,CDK6/Cyclin D1; experiment 2,6.6 nM
same,Inhibition at 10µM (%),CDK10/Cyclin L2; average,40.1%
same,Inhibition at 10µM (%),CDK10/Cyclin L2; experiment 1,36.9%
same,Inhibition at 10µM (%),CDK10/Cyclin L2; experiment 2,43.3%
same,IC50,CDK16/Cyclin Y; average (± SEM where n=3),4.1 nM
same,Inhibition at 10µM (%),CDK16/Cyclin Y; experiment 1,92.7%
same,IC50,CDK16/Cyclin Y; experiment 1,3.2 nM
same,Inhibition at 10µM (%),CDK16/Cyclin Y; experiment 2,92.0%
same,IC50,CDK16/Cyclin Y; experiment 2,4.9 nM
same,Inhibition at 10µM (%),CDK3/Cyclin E1; average,97.0%
same,Inhibition at 10µM (%),CDK3/Cyclin E1; experiment 1,94.8%
same,Inhibition at 10µM (%),CDK3/Cyclin E1; experiment 2,99.2%
same,Inhibition at 10µM (%),CDK15/Cyclin Y; average,92.4%
same,IC50,CDK15/Cyclin Y; average (± SEM where n=3),80 nM
same,Inhibition at 10µM (%),CDK15/Cyclin Y; experiment 1,92.6%
same,IC50,CDK15/Cyclin Y; experiment 1,107 nM
same,Inhibition at 10µM (%),CDK15/Cyclin Y; experiment 2,92.2%
same,IC50,CDK15/Cyclin Y; experiment 2,54 nM
same,Inhibition at 10µM (%),"CDK19/Cyclin C; CDK19/C, average",79.0%
same,IC50,"CDK19/Cyclin C; CDK19/C, experiment 1",507 nM
same,Inhibition at 10µM (%),"CDK19/Cyclin C; CDK19/C, experiment 1",76.8%
same,IC50,"CDK19/Cyclin C; CDK19/C, experiment 2",120 nM
same,Inhibition at 10µM (%),"CDK19/Cyclin C; CDK19/C, experiment 2",81.3%
same,IC50,"CDK19/Cyclin C; CDK19/Y (so in the source), average (± SEM where n=3)",310 nM
same,Inhibition at 10µM (%),CDK20/Cyclin H; experiment 1,73.0%
same,Inhibition at 10µM (%),CDK20/Cyclin H; experiment 2,44.8%
same,Inhibition at 10µM (%),CDK11A/Cyclin L2; average,42.8%
same,Inhibition at 10µM (%),CDK11A/Cyclin L2; experiment 1,32.6%
same,Inhibition at 10µM (%),CDK11A/Cyclin L2; experiment 2,53.0%
same,Inhibition at 10µM (%),CDK17/Cyclin Y; average,92.2%
same,IC50,CDK17/Cyclin Y; average (± SEM where n=3),8.3 nM
same,Inhibition at 10µM (%),CDK17/Cyclin Y; experiment 1,92.4%
same,IC50,CDK17/Cyclin Y; experiment 1,7.8 nM
same,Inhibition at 10µM (%),CDK17/Cyclin Y; experiment 2,92.0%
same,IC50,CDK17/Cyclin Y; experiment 2,8.8 nM
same,Inhibition at 10µM (%),CDK13/Cyclin K; average,37.1%
same,Inhibition at 10µM (%),CDK13/Cyclin K; experiment 1,35.9%
same,Inhibition at 10µM (%),CDK13/Cyclin K; experiment 2,38.4%
same,Inhibition at 10µM (%),CDK4/Cyclin D1; average,93.8%
same,IC50,CDK4/Cyclin D1; average (± SEM where n=3),12 nM
same,Inhibition at 10µM (%),CDK4/Cyclin D1; experiment 1,99.0%
same,IC50,CDK4/Cyclin D1; experiment 1,13 nM
same,Inhibition at 10µM (%),CDK4/Cyclin D1; experiment 2,88.5%
same,IC50,CDK4/Cyclin D1; experiment 2,11 nM
